The results in this text go back to patent US20120302569A1, “PHENYL-THIAZOLYL INHIBITORS OF PRO-MATRIX METALLOPROTEINASE ACTIVATION” (priority 2011, published 2012).

Test [1] has as its target T1, MMP9 mediated gelatinase activity (Rattus norvegicus, UniProt P50282).
T1 construct: from tissue; host or cells: liver cryosections of female Lewis rats
The test is described as follows: In situ zymography of gelatinase activity in livers of SCW-induced rats. The format is in vivo. Also on record: reduction of liver gelatinase activity: reference not given here. The note with it: for Intensity Mean / Intensity Rat 1 / Intensity Rat 2 / Intensity Rat 3: Day 25-28, liver. The text has this:
In situ zymography provides an alternative approach to assess active MMP9 in tissues (J Histochem Cytochem; 2004; 52:711-722). Tissue sections are overlain with fluorescein-conjugated gelatin wherein the conjugation is sufficiently dense to cause the fluorescein to be dye-quenched (DQ). Proteolytic degradation of the DQ-gelatin releases the fluorescein from the quenching effect giving rise to bright green fluorescence at the site of degradation. Because in situ zymography requires the use of frozen sections, calcified tissues are problematic. However, an additional feature of the SCW arthritis model is the development of hepatic granulomatous disease (J Immunol; 1986; 137:2199-2209), and MMP9 reportedly plays a role in macrophage recruitment in the granulomas response to mycobacteria (Infect Immun; 2006; 74:6135-6144). Consequently, granulomatous livers from SCW-treated rats were assessed for active MMP9 by in situ zymography.
As described above, Female Lewis (LEW/N) rats, 5-6 weeks of age (80-100 g) were injected (i.p.) with saline or SCW PG-PS. On day 28, when the granulomatous response was well established, animals were sacrificed and livers were frozen in OCT cryo-sectioning medium and 10 μm sections were cut on a Cryome HM 500 M cryotome and mounted on glass microscope slides. Sections were air dried briefly. MMP9 was confirmed as the source of the gelatinase activity in the liver by treating liver sections with monoclonal antibodies directed against the active site of the two major gelatinases MMP9 and MMP2. Liver sections overlain with 50 μL of 100 μg/mL neutralizing mouse monoclonal antibodies directed against MMP9 (Calbiochem, clone 6-6B), or MMP2 (Millipore, clone CA-4001), or with PBS for 1 hr at room temperature. Tissues were rinsed once with PBS, blotted, and briefly air dried and then overlain with DQ-gelatin (Invitrogen) dissolved to 1 mg/mL in deionized water and then diluted 1:10 in 1% wt/vol low gelling point agarose type VII (Sigma) in PBS. The sections were covered with coverslips, incubated in the dark at room temperature for 20 min, and imaged on an Olympus IX80 inverted microscope fitted with fluorescence optics, using SlideBook™ imaging software (Intelligent Imaging Innovations, Inc., Philadelphia, Pa.; version 5.0). Fluorescence intensity was determined (Table 8). When compared to a saline-treated rat, gelatinase activity was abundantly expressed in granulomatous liver sections obtained from a rat with SCW arthritis.
Next, liver in situ zymography was used to assess the relative presence of active MMP9 in rats dosed with vehicle vs. Compound α. Female Lewis (LEW/N) rats, 5-6 weeks of age (80-100 g) were injected (i.p.) with saline or SCW PG-PS. Commencing on day 25, randomized groups of rats (n=3 rats/group) received vehicle or 20 or 50 mg/kg Compound α BID by oral gavage.
Vehicle consisted of an aqueous mixture containing 2% (v:v) N-methylpyrrolidone, 5% (v:v) glycerine, and 20% (w:v) captisol. Treatment continued daily through the morning of day 28. Four hrs after the AM dose on day 28, rats were sacrificed and livers assessed for active MMP9 by in situ zymography (Table 9). Gelatinase activity was increased markedly in SCW-induced rats, but activity was reduced by approximately 80% in animals treated with 50 mg/kg Compound α.

Another test concerns the target T2, proMMP9 (Homo sapiens, UniProt P14780).
T2 construct: host or cells: HFL-1 human fetal lung fibroblasts
The test is described as follows: Activation of proMMP9 by human fetal lung fibroblast (HFL-1) cultures (Western blot). The format is cell-based. The conditions noted are these: 3.3 μM Compound α. The method, then:
Activation of proMMP9 by Human Fetal Lung Fibroblast Cultures
Compound α was assessed additionally for ability to block the maturation of proMMP9 to active MMP9 in cultures of human fetal lung fibroblasts (HFL-1, American Type Culture Collection #CCL-153). Unlike rat synoviocytes, HFL-1 cells were unable to process proMMP9 to the active form without addition of neutrophil elastase. […] Rather, the function of elastase in this assay may be to inactivate tissue inhibitors of matrix metalloproteinases (TIMPs) that repress endogenous pathways of MMP9 activation (Am J Respir Crit. Care Med; 1999; 159:1138-46).
HLF-1 were maintained in monolayer culture in DMEM with 10% FCS and were used between passage numbers 5-15. HLF-1 were embedded in collagen gels as described for rat SCW synoviocytes (vida supra). Half mL gels containing 0.4 million cells were dislodged into wells of 12 well Costar plates containing 1 mL/well of DMEM adjusted to contain 0.05% BSA and 100 ng/mL human TNFα (R&D Systems Cat #210-TA/CF). After overnight culture (37° C. and 5% CO2) wells were adjusted to contain an additional 0.5 mL of DMEM containing 0.05% BSA and with or without 13.2 μM Compound α (final concentration was 3.3 μM Compound α). Next, cultures were adjusted to contain 30 nM human elastase (Innovative Research). The plates were cultured an additional 72 hrs, at which time MMP9 secreted into the conditioned media was bound to gelatin-sepharose and evaluated by Western blot analysis as described for the rat synoviocyte cultures (vida supra). mAb-51/82 detected three forms of MMP9 in HFL-1 cultures.
A second experiment was performed to determine if the 80 kD form was mature active MMP9 and to determine the potency of Compound α as an inhibitor of MMP9 maturation in this assay. HFL-1 cells embedded in collagen gels were cultured as described above in the presence of TNFα overnight and the cultures were then adjusted to contain 30 nM elastase and graded concentrations of Compound α for an additional 72 hrs at which time MMP9 secreted into the conditioned media was bound to gelatin-sepharose and evaluated by Western blot analysis for active MMP9 using pAb-1246 raised against the N-terminal neoepitope of active MMP9 (Table 5). In the absence of Compound α, pAb-1246 readily detected MMP9 with an electrophoretic mobility of approximately 80 kD. […] Inhibition occurred over a dose range with an IC50 of approximately 0.3 μM Compound α.
In general terms: A western blot detects proteins with antibodies after separation by electrophoresis.

T2 sequence (P14780 20-707 limits assumed): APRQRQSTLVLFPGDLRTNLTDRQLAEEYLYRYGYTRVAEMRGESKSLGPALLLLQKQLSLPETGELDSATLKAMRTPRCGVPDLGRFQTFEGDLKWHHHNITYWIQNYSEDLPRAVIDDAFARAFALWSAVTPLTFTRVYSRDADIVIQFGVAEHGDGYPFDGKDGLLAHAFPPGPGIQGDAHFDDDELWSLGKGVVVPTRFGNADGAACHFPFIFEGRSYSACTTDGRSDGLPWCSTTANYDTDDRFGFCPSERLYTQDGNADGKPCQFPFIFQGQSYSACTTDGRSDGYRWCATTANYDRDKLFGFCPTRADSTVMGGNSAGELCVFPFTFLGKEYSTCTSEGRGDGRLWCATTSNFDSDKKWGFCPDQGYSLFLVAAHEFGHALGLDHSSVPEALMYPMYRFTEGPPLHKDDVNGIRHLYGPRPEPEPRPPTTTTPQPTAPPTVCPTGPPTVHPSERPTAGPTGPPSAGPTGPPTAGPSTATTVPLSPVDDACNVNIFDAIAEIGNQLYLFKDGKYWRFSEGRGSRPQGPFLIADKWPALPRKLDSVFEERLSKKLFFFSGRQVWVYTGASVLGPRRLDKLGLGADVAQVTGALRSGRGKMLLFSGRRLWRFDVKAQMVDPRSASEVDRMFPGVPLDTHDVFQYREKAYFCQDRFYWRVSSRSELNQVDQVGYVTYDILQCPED
T1 sequence (P50282 108-708): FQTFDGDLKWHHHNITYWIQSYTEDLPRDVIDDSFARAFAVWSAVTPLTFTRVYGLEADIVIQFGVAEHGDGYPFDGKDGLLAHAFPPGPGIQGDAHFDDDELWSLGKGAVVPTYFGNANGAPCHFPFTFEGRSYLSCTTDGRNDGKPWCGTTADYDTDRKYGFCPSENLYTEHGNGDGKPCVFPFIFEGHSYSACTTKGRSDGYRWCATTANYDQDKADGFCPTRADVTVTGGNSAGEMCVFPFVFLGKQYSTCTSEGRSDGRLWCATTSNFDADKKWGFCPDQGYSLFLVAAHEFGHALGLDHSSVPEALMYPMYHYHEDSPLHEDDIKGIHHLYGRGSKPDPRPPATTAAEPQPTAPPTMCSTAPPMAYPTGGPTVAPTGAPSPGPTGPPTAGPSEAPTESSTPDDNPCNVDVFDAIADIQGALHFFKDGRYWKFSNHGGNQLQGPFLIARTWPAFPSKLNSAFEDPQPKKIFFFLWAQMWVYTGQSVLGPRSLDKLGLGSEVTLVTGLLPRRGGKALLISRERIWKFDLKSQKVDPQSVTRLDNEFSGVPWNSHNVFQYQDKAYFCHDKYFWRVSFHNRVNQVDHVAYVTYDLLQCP

For `Cc1nc(C)c(-c2csc(Nc3cc(S(N)(=O)=O)ccc3OC(C)C)n2)s1` [Compound α, 3-(2′,4′-Dimethyl-[4,5′]bithiazolyl-2-ylamino)-4-isopropoxy-benzenesulfonamide.HBr], in test [1] (20 mg/kg BID oral), the “Intensity Mean” value amounted to 55.2 RLU × 10^6, the “Intensity Rat 1” value was found to be 43.0 RLU × 10^6, the “Intensity Rat 2” value amounted to 69.0 RLU × 10^6 and the “Intensity Rat 3” value was 53.7 RLU × 10^6. In addition, the “reduction of liver gelatinase activity” value in test [1] (50 mg/kg BID oral, Day 25-28) is on record as “approximately 80%”. Also, in test [1] (50 mg/kg BID oral), the “Intensity Mean” value stood at 11.1 RLU × 10^6, the “Intensity Rat 1” value is given as 3.2 RLU × 10^6, the “Intensity Rat 2” value amounted to 25.6 RLU × 10^6 and the “Intensity Rat 3” value turned out to be 4.5 RLU × 10^6. For the same molecule, on proMMP9, the “Percent of total signal 80 kD” value was 7%, the “Percent of total signal 86 kD” value is listed as 47% and the “Percent of total signal 100 kD” value is on record as 46%. Moreover, at proMMP9 (30 nM elastase, 72 hrs, mAb-L51/82), the “Signal Total” value amounted to 91346 INT*mm^2.
